According to patent US20070243321A1, “Aqueous Bitumen Emulsion” (Eiffage Travaux Publics, priority 2004, published 2007):

Assay: Measurement of surface tension and critical micellar concentrations (rising drop tensiometer)
Assay type: physicochemical
Details: for CMC: critical micellar concentration; for γcmc: surface tension at the CMC, rising drop
Experimental: Measurement of Surface Tension and Critical Micellar Concentrations The tensiometric measurements were carried out with a drop tensiometer operating by the method of the rising drop ([…] tensiometer, I.T. CONCEPT).

CMC	γcmc	Compound
8000 µM	30.0 mN/m	CCCCCCCCCCCCOS(=O)(=O)[O-].[Na+] [SDS (C12), reference compound]
800 µM	37.2 mN/m	octadecyl betaine mesylate [Esters C18:0]
140 µM	36.0 mN/m	betainylaminooctadecane mesylate [Amides C18:0]
